Reference: patent US20090318468A1, “PYRAZOLE COMPOUNDS 436” (AstraZeneca AB, priority 2008, published 2009)

Legend:
Assay type in all cases: in vitro ADME
[1] = molecular target: T1, human cytochrome P450 (CYP) 1A2 (Homo sapiens, UniProt P05177); assay: Cytochrome P450 Inhibition Assay, CYP 1A2; conditions: test compound 0.1-10 μM, substrate CEC
T1 construct: made in house; host or cells: yeast (microsomal fraction)
T1 sequence (P05177 1-516): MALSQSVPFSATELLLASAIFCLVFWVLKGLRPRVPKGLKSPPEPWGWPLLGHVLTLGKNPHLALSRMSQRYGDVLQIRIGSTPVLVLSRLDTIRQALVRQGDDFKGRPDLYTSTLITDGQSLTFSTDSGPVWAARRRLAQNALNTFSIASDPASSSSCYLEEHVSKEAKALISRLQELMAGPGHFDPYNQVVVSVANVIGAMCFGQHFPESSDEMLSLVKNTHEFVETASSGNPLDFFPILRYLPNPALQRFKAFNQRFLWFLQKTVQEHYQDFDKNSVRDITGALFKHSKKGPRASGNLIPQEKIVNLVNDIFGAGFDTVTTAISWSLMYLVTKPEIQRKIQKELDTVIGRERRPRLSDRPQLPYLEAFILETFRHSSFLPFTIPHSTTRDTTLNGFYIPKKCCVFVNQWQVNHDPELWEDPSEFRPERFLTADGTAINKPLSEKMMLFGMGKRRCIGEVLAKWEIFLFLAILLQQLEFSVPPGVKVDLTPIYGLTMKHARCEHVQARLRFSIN
Procedure: (§1) Cytochrome P450 Inhibition Assay
The inhibitory potential (IC50) of test compounds against 5 human cytochrome P450 (CYP) isoforms (1A2, 2C9, 2C19, 3A4 and 2D6) was assessed using an automated fluorescent end point in vitro assay modified from Crespi (Crespi and Stresser, J Pharmacol Toxicol Methods 2000, 44: 325-331). Microsomal subcellular fractions prepared from Yeast cell lines expressing each human CYP isoform were used as an enzyme source in this assay. The activity of the 5 major human CYPs was determined from the biotransformation of a number of coumarin substrates to fluorescent metabolites, in the presence of NADPH. […] Comparison of the fluorescence observed in the presence of varying concentrations of test compound with that seen in its absence allowed an IC50 value to be calculated. […] The appropriate solvent controls and substrate blanks were included in each experiment to assess control activity and identify any inherent fluorescence due to the test compounds. […] The plates were read on a fluorimeter (Spectrafluor Plus) at the appropriate excitation and emission wavelengths (listed in Table 2) and the percent activity, corrected for control, was plotted against the test compound concentration.

[2] = molecular target: T2, human cytochrome P450 (CYP) 2D6 (Homo sapiens, UniProt P10635); assay: Cytochrome P450 Inhibition Assay, CYP 2D6; conditions: test compound 0.1-10 μM, substrate MAMC
T2 construct: made in house; host or cells: yeast (microsomal fraction)
Procedure: as §1
(§2) The inhibitory potential (IC50) of test compounds against 5 human cytochrome P450 (CYP) isoforms (1A2, 2C9, 2C19, 3A4 and 2D6) was assessed using an automated fluorescent end point in vitro assay modified from Crespi (Crespi and Stresser, J Pharmacol Toxicol Methods 2000, 44: 325-331). Microsomal subcellular fractions prepared from Yeast cell lines expressing each human CYP isoform were used as an enzyme source in this assay. The activity of the 5 major human CYPs was determined from the biotransformation of a number of coumarin substrates to fluorescent metabolites, in the presence of NADPH. […] Stock solutions of each CYP, with its respective substrate, were prepared in phosphate buffer pH 7.4 (see Table 1) and 178 μl was added to the well of a black solid, flat bottom, 300 μl 96 well microtitre plate (Corning Costar). […] The appropriate solvent controls and substrate blanks were included in each experiment to assess control activity and identify any inherent fluorescence due to the test compounds. […] The plates were read on a fluorimeter (Spectrafluor Plus) at the appropriate excitation and emission wavelengths (listed in Table 2) and the percent activity, corrected for control, was plotted against the test compound concentration.

[3] = molecular target: T3, human cytochrome P450 (CYP) 3A4 (Homo sapiens, UniProt P08684); assay: Cytochrome P450 Inhibition Assay, CYP 3A4; conditions: test compound 0.1-10 μM, substrate BFC
T3 construct: made in house; host or cells: yeast (microsomal fraction)
Procedure: as §1, §2

T3 sequence (P08684 whole entry): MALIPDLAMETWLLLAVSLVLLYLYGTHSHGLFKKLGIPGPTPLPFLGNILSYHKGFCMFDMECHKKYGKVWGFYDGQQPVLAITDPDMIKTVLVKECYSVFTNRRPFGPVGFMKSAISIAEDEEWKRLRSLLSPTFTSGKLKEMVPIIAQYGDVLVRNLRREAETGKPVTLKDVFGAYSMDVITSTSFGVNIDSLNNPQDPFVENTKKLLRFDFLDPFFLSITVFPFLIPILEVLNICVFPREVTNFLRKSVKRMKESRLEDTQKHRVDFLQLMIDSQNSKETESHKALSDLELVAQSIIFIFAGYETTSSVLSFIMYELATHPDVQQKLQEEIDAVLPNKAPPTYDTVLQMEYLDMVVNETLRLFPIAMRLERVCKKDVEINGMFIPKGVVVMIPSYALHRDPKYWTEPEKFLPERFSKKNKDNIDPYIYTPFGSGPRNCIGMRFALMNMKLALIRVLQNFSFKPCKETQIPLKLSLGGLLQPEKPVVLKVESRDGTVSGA
T2 sequence (P10635 whole entry): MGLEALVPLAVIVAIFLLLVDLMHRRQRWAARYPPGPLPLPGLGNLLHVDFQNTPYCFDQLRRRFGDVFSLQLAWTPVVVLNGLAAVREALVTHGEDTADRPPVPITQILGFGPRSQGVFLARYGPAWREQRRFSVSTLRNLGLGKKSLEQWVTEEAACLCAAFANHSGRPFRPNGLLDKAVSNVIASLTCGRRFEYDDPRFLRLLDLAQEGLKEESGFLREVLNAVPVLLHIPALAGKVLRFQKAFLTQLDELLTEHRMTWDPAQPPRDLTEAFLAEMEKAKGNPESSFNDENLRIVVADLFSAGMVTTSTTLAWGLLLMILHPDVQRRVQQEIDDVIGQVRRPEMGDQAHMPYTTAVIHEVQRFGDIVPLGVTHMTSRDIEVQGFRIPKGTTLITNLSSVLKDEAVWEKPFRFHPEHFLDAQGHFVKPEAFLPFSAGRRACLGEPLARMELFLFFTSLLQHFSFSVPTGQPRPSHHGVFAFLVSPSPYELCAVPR

IC50 [1] [µM]	IC50 [2] [µM]	IC50 [3] [µM]	Structure (SMILES)
> 10	> 10	2.94	COc1cc(CCc2cc(NC(=O)c3ccc(N4CCN(C)[C@@H](C)C4)cc3)[nH]n2)cc(OC)c1 [Example 1a, (S)—N-(3-(3,5-Dimethoxyphenethyl)-1H-pyrazol-5-yl)-4-(3,4-dimethylpiperazin-1-yl)benzamide]
> 10	> 10	> 10	COc1cc(CCc2cc(NC(=O)c3ccc(N4CCN(C)[C@H](C)C4)cc3)[nH]n2)cc(OC)c1 [Example 1b, (R)—N-(3-(3,5-Dimethoxyphenethyl)-1H-pyrazol-5-yl)-4-(3,4-dimethylpiperazin-1-yl)benzamide]
